Assay results: patent publication US9839627B2, “Methods of treating fragile X associated disorders, ADHD, and autism spectrum disorder” (Neurovance, Inc., priority 2013, dated 2017)

Key:
individuals with FXS = conditions: reported trials; failures due to aggravation of irritable, moody/perseverative and aggressive behaviors; cited from earlier work
dopamine reuptake (DA) = dopamine reuptake (DA) (Homo sapiens, UniProt Q01959); assay: dopamine reuptake inhibition; type: biochemical; conditions: fraction of the potency towards NE reuptake
Chain of dopamine reuptake (DA) (Q01959 whole entry): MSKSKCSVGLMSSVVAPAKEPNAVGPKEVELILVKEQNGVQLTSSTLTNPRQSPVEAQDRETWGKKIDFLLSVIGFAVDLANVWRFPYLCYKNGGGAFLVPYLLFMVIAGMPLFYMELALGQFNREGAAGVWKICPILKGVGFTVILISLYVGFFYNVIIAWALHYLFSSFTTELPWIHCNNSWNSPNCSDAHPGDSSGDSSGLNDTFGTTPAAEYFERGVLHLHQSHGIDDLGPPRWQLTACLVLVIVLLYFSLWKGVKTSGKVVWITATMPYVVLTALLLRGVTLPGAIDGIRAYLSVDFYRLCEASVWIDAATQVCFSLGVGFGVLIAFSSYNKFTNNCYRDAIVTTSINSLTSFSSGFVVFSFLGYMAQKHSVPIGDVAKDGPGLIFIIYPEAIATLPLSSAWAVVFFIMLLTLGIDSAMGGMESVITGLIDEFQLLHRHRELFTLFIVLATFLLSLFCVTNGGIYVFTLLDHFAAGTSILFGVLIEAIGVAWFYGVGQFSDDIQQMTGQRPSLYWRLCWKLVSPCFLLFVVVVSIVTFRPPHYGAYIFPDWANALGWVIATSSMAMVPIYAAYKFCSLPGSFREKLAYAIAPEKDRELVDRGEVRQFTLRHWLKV

[1] = target: serotonin reuptake (5-HT) (Homo sapiens, UniProt P31645); assay: serotonin reuptake inhibition; type: biochemical; conditions: fraction of the potency towards NE reuptake
Chain of serotonin reuptake (5-HT) (P31645 whole entry): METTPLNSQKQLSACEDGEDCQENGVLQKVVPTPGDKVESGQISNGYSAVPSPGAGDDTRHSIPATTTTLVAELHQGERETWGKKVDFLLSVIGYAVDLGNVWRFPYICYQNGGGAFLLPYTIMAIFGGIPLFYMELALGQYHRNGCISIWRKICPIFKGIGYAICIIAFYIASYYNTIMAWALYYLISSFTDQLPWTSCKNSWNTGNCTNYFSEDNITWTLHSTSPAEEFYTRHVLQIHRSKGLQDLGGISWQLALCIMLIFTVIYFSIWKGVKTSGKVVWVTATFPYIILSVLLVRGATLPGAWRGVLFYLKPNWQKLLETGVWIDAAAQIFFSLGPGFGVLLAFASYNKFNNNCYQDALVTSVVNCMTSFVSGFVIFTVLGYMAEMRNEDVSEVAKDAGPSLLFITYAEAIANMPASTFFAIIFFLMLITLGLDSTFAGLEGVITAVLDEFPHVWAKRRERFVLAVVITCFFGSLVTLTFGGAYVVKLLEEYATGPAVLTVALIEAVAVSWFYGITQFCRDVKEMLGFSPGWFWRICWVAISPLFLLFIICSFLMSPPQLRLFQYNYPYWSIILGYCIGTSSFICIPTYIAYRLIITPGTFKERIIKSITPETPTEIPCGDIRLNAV

[2] = target: norepinephrine reuptake (NE) (Homo sapiens, UniProt P23975); assay: norepinephrine reuptake inhibition; type: biochemical; conditions: unbalanced triple reuptake inhibitor; compared with DA and 5-HT reuptake
Chain of norepinephrine reuptake (NE) (P23975 whole entry): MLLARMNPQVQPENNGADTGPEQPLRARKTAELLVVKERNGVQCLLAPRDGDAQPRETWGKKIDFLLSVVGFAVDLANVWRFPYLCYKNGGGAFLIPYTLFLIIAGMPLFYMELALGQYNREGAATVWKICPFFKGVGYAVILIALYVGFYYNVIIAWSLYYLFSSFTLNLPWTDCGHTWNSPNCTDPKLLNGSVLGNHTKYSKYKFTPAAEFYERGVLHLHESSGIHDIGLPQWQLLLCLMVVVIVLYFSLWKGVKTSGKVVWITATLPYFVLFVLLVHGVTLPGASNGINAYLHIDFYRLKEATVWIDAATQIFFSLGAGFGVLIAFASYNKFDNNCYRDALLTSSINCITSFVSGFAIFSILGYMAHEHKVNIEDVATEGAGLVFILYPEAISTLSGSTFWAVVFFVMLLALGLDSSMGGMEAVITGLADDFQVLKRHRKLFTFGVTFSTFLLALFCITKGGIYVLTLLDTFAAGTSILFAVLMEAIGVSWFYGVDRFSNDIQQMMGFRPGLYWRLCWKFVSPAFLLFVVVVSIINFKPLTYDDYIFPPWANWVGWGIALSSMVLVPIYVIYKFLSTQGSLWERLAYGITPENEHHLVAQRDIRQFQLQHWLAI

[3] = target: T1, monoamine oxidase A (MAO A) (Homo sapiens, UniProt P21397); assay: metabolic pathway
T1 sequence (P21397 1-527): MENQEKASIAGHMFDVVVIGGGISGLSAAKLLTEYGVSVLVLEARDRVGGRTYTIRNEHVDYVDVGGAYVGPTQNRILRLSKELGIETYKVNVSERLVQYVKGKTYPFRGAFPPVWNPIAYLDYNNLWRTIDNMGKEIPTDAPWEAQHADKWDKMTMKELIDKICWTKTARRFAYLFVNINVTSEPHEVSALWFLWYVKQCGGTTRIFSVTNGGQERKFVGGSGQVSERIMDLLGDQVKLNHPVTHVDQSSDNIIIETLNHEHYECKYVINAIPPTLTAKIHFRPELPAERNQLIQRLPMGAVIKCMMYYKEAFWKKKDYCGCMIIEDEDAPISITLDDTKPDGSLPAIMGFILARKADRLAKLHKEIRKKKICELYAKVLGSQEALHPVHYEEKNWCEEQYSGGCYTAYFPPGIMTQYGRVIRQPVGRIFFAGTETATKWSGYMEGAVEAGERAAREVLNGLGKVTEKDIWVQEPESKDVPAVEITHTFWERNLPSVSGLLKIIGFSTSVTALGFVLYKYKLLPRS

Structure (SMILES) | outcome of treatment in individuals with FXS (individuals with FXS) | potency towards dopamine reuptake relative to norepinephrine reuptake (dopamine reuptake (DA)) | potency towards serotonin reuptake relative to norepinephrine reuptake [1] | relative potency towards norepinephrine reuptake [2] | primary route of metabolism [3]
O=C1CCc2ccc(OCCCCN3CCN(c4cccc(Cl)c4Cl)CC3)cc2N1 [Aripiprazole] | some individuals with FXS failed treatment |  |  |  | 
c1ccc2cc([C@]34CNC[C@H]3C4)ccc2c1 [(1R,5S)-1-(naphthalen-2-yl)-3-azabicyclo[3.1.0]hexane] |  | one-sixth | one-fourteenth | most potency | primarily metabolized by monoamine oxidase A (MAO A)
CNCC[C@@H](Oc1ccccc1C)c1ccccc1 [atomoxetine] | unsuccessful |  |  |  | 
